Laboratory results published in US6897237B2, “MMP-12 inhibitors” (Shionogi & Co. Ltd., priority 2000, dated 2005).

Assays:
Assay type in all cases: biochemical
Details in all cases: substrate MOCAc-Pro-Leu-Gly-Leu-A2Pr(DNP)-Ala-Arg-NH2
MMP-2 = biological target: T1, MMP-2 (Homo sapiens, UniProt P08253); assay: Assay for inhibitory activities on MMPs (fluorogenic peptide substrate): MMP-2
T1 construct: purchased Calbiochem-Novabiochem International, Inc
T1 sequence (P08253 110-660): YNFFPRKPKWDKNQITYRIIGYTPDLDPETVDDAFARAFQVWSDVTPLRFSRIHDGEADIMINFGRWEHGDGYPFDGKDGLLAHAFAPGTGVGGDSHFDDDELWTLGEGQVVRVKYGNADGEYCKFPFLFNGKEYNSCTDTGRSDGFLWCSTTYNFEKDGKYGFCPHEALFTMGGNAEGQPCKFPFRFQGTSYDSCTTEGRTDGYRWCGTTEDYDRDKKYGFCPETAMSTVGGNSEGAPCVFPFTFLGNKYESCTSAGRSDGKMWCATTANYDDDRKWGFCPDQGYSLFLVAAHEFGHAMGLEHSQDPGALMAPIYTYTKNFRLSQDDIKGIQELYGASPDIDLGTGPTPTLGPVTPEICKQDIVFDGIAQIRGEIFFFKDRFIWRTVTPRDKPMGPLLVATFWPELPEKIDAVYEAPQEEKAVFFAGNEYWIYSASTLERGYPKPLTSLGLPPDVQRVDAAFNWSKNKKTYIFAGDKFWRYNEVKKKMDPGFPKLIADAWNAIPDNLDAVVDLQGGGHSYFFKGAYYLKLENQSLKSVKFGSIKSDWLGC
Description: MMP-2 was purchased from Calbiochem-Novabiochem International, Inc.
(§1) The enzymatic activity on MMPs was analyzed by the method described in “C. Graham Knight, Frances Willenbrock and Gillian Murphy: A novel coumarin-labelled peptide for sensitive continuous assays of the matrix metalloproteinases: FEBS LETT., 296, (1992), 263-266”. The substrate: MOCAc-Pro-Leu-Gly-Leu-A2Pr(DNP)-Ala-Arg-NH2 was purchased from Peptide Institute, Inc., Osaka, Japan. The measurement of the inhibitory activities (IC50) was carried out by the following four methods;
(§2) (A) Reaction with substrate, enzyme (MMPs) and inhibitor
(§3) (B) Reaction with substrate and inhibitor, without enzyme
(§4) (C) Reaction with substrate and enzyme (MMPs), without inhibitor
(§5) (D) Reaction with substrate only
(§6) IC50 values were calculated by using the following formula and each fluorescence values of above four methods (A to D).
(§7) % inhibition={1−(A−B)/(C−D)}×100
(§8) IC50 means the concentration required to inhibit 50% of the enzyme activity.

MMP-12 catalytic domain = biological target: T2, MMP-12 catalytic domain (Homo sapiens, UniProt P39900); assay: Assay for inhibitory activities on MMPs (fluorogenic peptide substrate): MMP-12
T2 construct: catalytic domain(^100Phe˜^263Gly); His-tag; enterokinase digestion-site; made in house; host or cells: Escherichia coli
T2 sequence (P39900 100-263): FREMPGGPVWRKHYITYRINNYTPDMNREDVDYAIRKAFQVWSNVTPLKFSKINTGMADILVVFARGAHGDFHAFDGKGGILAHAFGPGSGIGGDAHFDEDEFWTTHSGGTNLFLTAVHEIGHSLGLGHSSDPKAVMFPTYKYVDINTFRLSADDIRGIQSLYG
Description: (§9) In regard to MMP-12, catalytic domain(^100Phe˜^263Gly) was amplified with RT-PCR from Human Placenta Total RNA. This was cloned in Escherichia coli expression vector pTrc99AHE inserted with His-tag sequence and enterokinase digestion-site, induced and expressed by IPTG (Isopropyl-β-D-thiogalactopyranoside) and expressed in a insoluble fraction. Isolation of MMP-12 from a insoluble fraction was carried out by dissolving in modifier (6M urea) by a usual method and purification with metal chelate chromatography (Ni Chelateing Sepharose). And then removing modifier (6M urea) with dialysis and refolding of the enzyme spontaneously gave activated MMP-12.
as §1, §2, §3, §4, §5, §6, §7, §8

MMP-9 = biological target: T3, MMP-9 (Homo sapiens, UniProt P14780); assay: Assay for inhibitory activities on MMPs (fluorogenic peptide substrate): MMP-9
T3 construct: endogenous in cells; host or cells: HT1080 human fibrosarcoma cells, TPA-stimulated; purified in house from conditioned medium
T3 sequence (P14780 107-707 limits assumed): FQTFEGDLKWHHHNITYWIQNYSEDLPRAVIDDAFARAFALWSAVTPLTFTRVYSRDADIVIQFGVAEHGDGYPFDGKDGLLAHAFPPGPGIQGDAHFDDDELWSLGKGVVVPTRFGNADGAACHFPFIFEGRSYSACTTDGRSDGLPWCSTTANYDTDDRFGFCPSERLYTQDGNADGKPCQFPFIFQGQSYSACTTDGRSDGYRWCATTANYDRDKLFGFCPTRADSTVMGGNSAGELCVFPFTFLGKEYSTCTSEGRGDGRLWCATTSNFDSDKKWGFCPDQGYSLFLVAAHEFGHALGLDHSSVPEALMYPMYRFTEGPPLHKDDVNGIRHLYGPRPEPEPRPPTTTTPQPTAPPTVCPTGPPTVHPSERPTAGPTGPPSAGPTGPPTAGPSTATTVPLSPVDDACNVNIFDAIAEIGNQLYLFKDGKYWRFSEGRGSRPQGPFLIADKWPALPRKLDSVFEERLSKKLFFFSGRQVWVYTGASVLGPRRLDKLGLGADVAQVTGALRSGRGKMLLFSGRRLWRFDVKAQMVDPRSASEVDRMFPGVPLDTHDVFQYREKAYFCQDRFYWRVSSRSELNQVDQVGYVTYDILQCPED
Text: MMP-9 was isolated and purified by using a combination of procedures described in previous reports as follows. Yasunori Okada, Yukio Gonoji, Katsumi Naka, Katsuro Tomita, Isao Nakanishi, Kazushi Iwata, Kyoko Yamashita, and Taro Hayakawa: Matrix metalloproteinase 9 (92-kDa gelatinase/type IV collagenase) from HT1080 human fibrosarcoma cells. Purification and activation of the precursor and enzymic properties. J. Biol. Chem., 267 (1.992) 21712-21719. Yasunori Okada, Tatsuhisa Morodomi, Jan J, Enghild, Ko Suzuki, Atsushi Yasui, Isao Nakanishi, Guy Salvesen and Hideaki Nagase: Matrix metalloproteinase 2 from human rheumatoid synovial fibroblasts. Purification and activation of the precursor and enzymic properties. Eur. J. Biochem. 194 (1990) 721-730. Robin V Ward, Rosalind M Hembry, John J Reynolds and Gillian Murphy: The purification of tissue inhibitor of metalloproteinase-2 from its 72 kDa progelatinase complex. Biochem. J. 278 (1991) 179-187.
Briefly, human fibrosarcoma ATCC HT1080 cell line was cultured to confluent in Dulbecco's Modified Medium (DMEM) containing 10% fetal-calf serum at 37° C. for 48 hours. Subsequently, the medium of confluent culture was changed to serum-free DMEM medium. To obtain MMP-9, Phorbol-12-myristate-13-acetate (TPA) must be added to this serum-free DMEM medium at a concentration of 50 ng/ml. The TPA treated medium was centrifuged at 3000 rpm for 15 min and the supernatant was concentrated to 450 ml by a Toyo-Roshi UP-20 apparatus with an ultrafiltration membrane. Then, proMMP-9 in this concentrated solution was purified by using columns of Gelatin-Sepharose and Concanavalin A-Sepharose. The pool containing proMMP-9 was dialyzed, concentrated (Toyo-Roshi UP-20) and applied to columns of Sephacryl S-200 and Green A matrix for the separation from TIMPs. The obtained proMMP-9 fraction was activated by TPCK-Trypsin (final conc. […] reaction mix.).
as §1, §2, §3, §4, §5, §6, §7, §8

MMP-8 catalytic domain = biological target: T4, MMP-8 catalytic domain (Homo sapiens, UniProt P22894); assay: Assay for inhibitory activities on MMPs (fluorogenic peptide substrate): MMP-8
T4 construct: catalytic domain (^99Phe˜^262Gly); His-tag; enterokinase digestion-site; made in house; host or cells: Escherichia coli
T4 sequence (P22894 99-262): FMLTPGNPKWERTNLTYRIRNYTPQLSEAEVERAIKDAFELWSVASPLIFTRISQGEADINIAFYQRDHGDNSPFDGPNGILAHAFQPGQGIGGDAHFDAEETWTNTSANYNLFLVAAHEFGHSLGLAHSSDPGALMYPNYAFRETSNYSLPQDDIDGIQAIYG
Text: In regard to MMP-8, catalytic domain (^99Phe˜^262Gly) was amplified with PCR using commercial available Human Bone Marrow cDNA. This was cloned in Escherichia. coli expression vector pTrc99AHE inserted with His-tag sequence and enterokinase digestion-site, induced and expressed by IPTG (Isopropyl-β-D-thiogalactopyranoside) and expressed in a insoluble fraction (Than F. Ho, M. Walid Qoronfleh, Robert C. Wahl, Trica A. Pulvino, Karen J. Vavra, Joe Falvo, Tracey M. Banks, Patricia G. Brake and Richard B. Ciccarelli: Gene expression, purification and characterization of recombinant human neutrophil collagenase. Gene 146, (1994) 297-301, Prepared by the a improved method of this material). Isolation of MMP-8 from insoluble fraction was carried out by dissolving in modifier (6M urea) by a usual method and purification with metal chelate chromatography. And then removing modifier (6M urea) with dialysis and refolding of the enzyme spontaneously gave activated MMP-8.
as §1, §2, §3, §4, §5, §6, §7, §8

MMP-1 = biological target: T5, MMP-1 (Homo sapiens, UniProt P03956); assay: Assay for inhibitory activities on MMPs (fluorogenic peptide substrate): MMP-1
T5 construct: purchased Yagai
T5 sequence (P03956 100-469): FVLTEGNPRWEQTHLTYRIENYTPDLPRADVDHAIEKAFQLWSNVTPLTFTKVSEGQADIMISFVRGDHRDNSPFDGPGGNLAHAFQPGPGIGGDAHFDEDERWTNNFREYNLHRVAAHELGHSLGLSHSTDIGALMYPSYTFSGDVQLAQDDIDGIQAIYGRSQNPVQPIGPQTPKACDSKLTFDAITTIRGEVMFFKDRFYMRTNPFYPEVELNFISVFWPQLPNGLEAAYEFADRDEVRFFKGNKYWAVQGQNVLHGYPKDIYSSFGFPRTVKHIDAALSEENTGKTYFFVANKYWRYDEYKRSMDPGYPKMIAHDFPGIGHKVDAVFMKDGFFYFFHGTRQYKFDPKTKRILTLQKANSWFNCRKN
Description: MMP-1 was purchased from Yagai.
as §1, §2, §3, §4, §5, §6, §7, §8

MMP-13 catalytic domain = biological target: T6, MMP-13 catalytic domain (Homo sapiens, UniProt P45452); assay: Assay for inhibitory activities on MMPs (fluorogenic peptide substrate): MMP-13
T6 construct: catalytic domain (^104Tyr˜^267Gly); His-tag; enterokinase digestion-site; made in house; host or cells: Escherichia coli
Description: as §9, with “MMP-13, mRNA was prepared from carcinoma cell SW1353 derived from human cartilage stimulate by IL-1, TNF and” for “MMP-12,”, “domain (^104Tyr˜^267Gly)” for “domain(^100Phe˜^263Gly)”, “RT-PCR.” for “RT-PCR from Human Placenta Total RNA.”, “MMP-1.3” for “MMP-12”, “dialyze” for “dialysis”, “MMP-13.” for “MMP-12.”
as §1, §2, §3, §4, §5, §6, §7, §8

Row | SMILES | IC50 (MMP-2) | IC50 (MMP-12 catalytic domain) | IC50 (MMP-9) | IC50 (MMP-8 catalytic domain) | IC50 (MMP-1) | IC50 (MMP-13 catalytic domain)
1 | CSCC[C@H](NS(=O)(=O)c1ccc(C#Cc2ccc3ccccc3c2)s1)C(=O)O [Compound B-11] | 1860 nM | 110 nM | 4900 nM | 2890 nM | > 10 µM | 6140 nM
2 | O=C(O)[C@H](NS(=O)(=O)c1ccc(C#Cc2ccc3ccccc3c2)s1)c1ccc(O)cc1 [Compound B-8] | 1120 nM | 48 nM | 2110 nM | 2650 nM | > 10 µM | 2300 nM
3 | O=C(O)[C@H](NS(=O)(=O)c1ccc(C#Cc2ccc3ccccc3c2)cc1)c1ccc(O)cc1 [Compound A-12] | 370 nM | 35 nM | 1790 nM | 3630 nM | > 10 µM | 1140 nM
4 | CC(C)[C@H](NS(=O)(=O)c1ccc(C#Cc2ccc3ccccc3c2)s1)C(=O)O [Compound B-5] | 2230 nM | 82 nM | 3270 nM | 2340 nM | > 10 µM | 6900 nM
5 | O=C(O)[C@@H](Cc1ccccc1)NS(=O)(=O)c1ccc(C#Cc2ccc3ccccc3c2)cc1 [Compound A-2] | > 10000 nM | 16 nM | > 10000 nM | > 10000 nM | > 10 µM | > 10000 nM
6 | O=C(O)[C@@H](Cc1c[nH]c2ccccc12)NS(=O)(=O)c1ccc(C#Cc2ccc3ccccc3c2)s1 [Compound B-3] |  | 16 nM | 750 nM | 1400 nM | > 10 µM | > 10000 nM
7 | O=C(O)CNS(=O)(=O)c1ccc(C#Cc2ccc3ccccc3c2)s1 [Compound B-9] | 1270 nM | 260 nM | 4230 nM | > 10000 nM | > 10 µM | 7180 nM
8 | O=C(O)C[C@@H](NS(=O)(=O)c1ccc(C#Cc2ccc3ccccc3c2)s1)C(=O)O [Compound B-12] | 1250 nM | 40 nM | 1100 nM | 2600 nM | > 10 µM | 1400 nM
9 | C[C@H](NS(=O)(=O)c1ccc(C#Cc2ccc3ccccc3c2)cc1)C(=O)O [Compound A-8] | 570 nM | 16 nM | 3280 nM | 2440 nM | > 10 µM | 2770 nM
10 | CC(C)[C@@H](NS(=O)(=O)c1ccc(C#Cc2ccc3ccccc3c2)cc1)C(=O)O [Compound A-5] | 110 nM | 14 nM | 330 nM | 1060 nM | > 10 µM | 340 nM
11 | CC(C)[C@H](NS(=O)(=O)c1ccc(C#Cc2ccc3ccccc3c2)cc1)C(=O)O [Compound A-6] |  |  |  |  | > 10 µM | 
12 | CC(C)C[C@@H](NS(=O)(=O)c1ccc(C#Cc2ccc3ccccc3c2)cc1)C(=O)O [Compound A-10] | 370 nM | 58 nM | 1440 nM | 4380 nM | > 10 µM | 1550 nM
13 | O=C(O)[C@H](Cc1ccccc1)NS(=O)(=O)c1ccc(C#Cc2ccc3ccccc3c2)s1 [Compound B-2] | > 10000 nM | 240 nM | > 10000 nM | > 10000 nM | > 10 µM | > 10000 nM
14 | O=C(Nc1ccc(S(=O)(=O)N[C@@H](Cc2ccccc2)C(=O)O)cc1)c1ccc2ccccc2c1 [Compound D-2] | 560 nM | 150 nM | 6560 nM | 4510 nM | > 10 µM | 2330 nM
15 | O=C(O)[C@H](Cc1ccccc1)NS(=O)(=O)c1ccc(-n2nnc(-c3ccc4ccccc4c3)n2)cc1 [Compound C-2] | > 10000 nM | 140 nM | > 10000 nM | > 10000 nM | > 10 µM | > 10000 nM
16 | O=C(O)[C@@H](Cc1ccccc1)NS(=O)(=O)c1ccc(C#Cc2cccc3ccccc23)s1 [Compound B-17] | > 10000 nM | 820 nM | > 10000 nM | > 10000 nM | > 10 µM | > 10000 nM
17 | O=C(O)[C@H](Cc1ccccc1)NS(=O)(=O)c1ccc(C#Cc2ccc3c(c2)OCO3)cc1 [Compound A-22] | 13 nM | 7.9 nM | 300 nM | 10 nM | > 10 µM | 37 nM
18 | CSCC[C@@H](NS(=O)(=O)c1ccc(C#Cc2ccc3ccccc3c2)s1)C(=O)O [Compound B-10] | 350 nM | 8.8 nM | 870 nM | 1000 nM | > 10 µM | 950 nM
